Here are results for 1 compound from patent US20140162942A1, “INHIBITION OF CYP3A DRUG METABOLISM” (priority 2010, published 2014).

One data set relates to CYP3A4/5. The data set is described as follows: Metabolite inhibitory complex (MIC) formation, human liver microsomes with high CYP3A4/5 activity. The following applies: 3 μM, scans 380-520 nm for 15 minutes. It counts as in vitro ADME. As to the method: In an attempt to determine the mechanism in which boceprevir inactivated CYP3A4/5, an experiment was conducted to determine if boceprevir formed a spectrophotometrically detectable metabolite inhibitory complex with cytochrome P450 (i.e., peaks at approximately 452 nm).
In this experiment (summarized in Table 4), an individual human liver microsomal sample containing high levels of CYP3A4/5 activity (final protein concentration of 1 mg/mL, 1.7 nmol P450/mg protein) was added to the sample and reference cuvettes in a buffer mixture consisting of potassium phosphate (50 mM), and MgCl2 (3 mM) for a final volume of 980 μL. Baseline scans from 380 to 520 nm were recorded on a Varian Cary 100 BIO UV/Vis dual beam spectrophotometer. Boceprevir was then added to the sample cuvette in 10 μL of methanol for a final incubation concentration of 3 μM. A corresponding volume of the solvent (10 μL of methanol), used to dissolve boceprevir, was added to the reference. The reactions were initiated with 10 μL of β-NADPH added to both cuvettes to give a final volume of 1 mL. Continuous scans were conducted every minute for 15 minutes after the addition of β-NADPH. All scans were conducted at approximately 37° C. […]
Background: Microsomes from liver hold many membrane-bound enzymes, among them those of drug oxidation.

Another data set deals with T1, CYP1A2 (Homo sapiens, UniProt P05177).
T1 construct: Pooled human liver microsomes (from sixteen individuals) were used as the source of enzymes; tissue XenoTech, LLC; host or cells: human liver microsomes, pool of sixteen donors
T1 sequence (P05177 1-516): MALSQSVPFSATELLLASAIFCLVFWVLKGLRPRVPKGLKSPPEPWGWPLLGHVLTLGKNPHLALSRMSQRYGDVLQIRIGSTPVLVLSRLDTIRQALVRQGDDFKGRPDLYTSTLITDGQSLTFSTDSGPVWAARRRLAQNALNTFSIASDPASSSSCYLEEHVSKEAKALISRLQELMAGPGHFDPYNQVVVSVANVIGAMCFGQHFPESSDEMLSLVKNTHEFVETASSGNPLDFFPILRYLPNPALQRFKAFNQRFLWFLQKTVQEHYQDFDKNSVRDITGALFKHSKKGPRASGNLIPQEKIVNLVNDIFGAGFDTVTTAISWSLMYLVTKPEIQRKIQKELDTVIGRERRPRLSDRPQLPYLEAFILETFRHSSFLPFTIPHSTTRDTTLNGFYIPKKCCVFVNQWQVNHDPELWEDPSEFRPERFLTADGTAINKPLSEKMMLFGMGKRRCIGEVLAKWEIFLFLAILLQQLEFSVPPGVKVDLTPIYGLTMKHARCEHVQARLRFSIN
Put plainly: CYP1A2 inhibition, phenacetin O-deethylation in human liver microsomes. It counts as in vitro ADME. The following applies: for Potential for Time-Dep. Inhibition: comparison with and without 30-minute pre-incubation; for inhibition at 5 min, 100 µM: human, pH 7.4, probe phenacetin (O-deethylation), 60 μM. How it is done: The basis for many of the following incubation conditions is described in the following references: Madan, et al., 2002,^(1) Huang, 2004,^(3) Ogilvie, et al., 2006,^(6) Pearce, et al., 1996,^(7) Tucker, et al., 2001,^(4) and Walsky and Obach, 2004.^(5) In general, incubations were conducted at approximately 37° C. in 400-μL incubation mixtures (target pH 7.4) containing high purity water, potassium phosphate buffer (50 mM), MgCl2 (3 mM), EDTA (1 mM), an NADPH-generating system [always the mixture of the following: NADP (1 mM), glucose-6-phosphate (5 mM), glucose-6-phosphate dehydrogenase (1 Unit/mL)], and marker substrate at the final concentrations indicated. Pooled human liver microsomes (from sixteen individuals) were used as the source of enzymes (Section 1.3.1.2). The concentrations of marker substrates were based on the Km and Vmax data that were determined previously (data not shown).
Due to the possibility that boceprevir may bind to microsomal protein or lipids, an attempt was made to design these experiments such that, in as many cases as possible, the microsomal protein, incubation time, and phosphate buffer concentration were 0.1 mg/mL, 5 minutes and 50 mM, respectively, for assays performed with human liver microsomes (Table 1). […] Since it is not imperative that the concentration of marker substrates be exactly equal to Km, the marker substrate concentrations were rounded up or down, as applicable, to simplify the experimental design (data not shown). […] Thus, the final incubation concentration of phenacetin was 60 μM (Table 1).
The ability of boceprevir to inhibit the CYP enzymes listed in Section 1.2.1 was investigated with a pool of sixteen individual human liver microsomal samples at the concentrations indicated in Table 1. Aliquots of the stock and/or working solutions of boceprevir were manually added to buffer mixtures containing the components described in Section 1.3.21. Incubation mixtures were prepared in bulk to obviate the need for directly pipetting very small volumes (i.e., 1 μL or less). Incubations containing no boceprevir (0 μM) contained the vehicle used to dissolve boceprevir (i.e., 1% methanol).
The Tecan liquid handling system conducted all remaining incubation steps, with the exception of the centrifugation. Aliquots of the buffer mixtures were then automatically added to 96-well plates at the appropriate locations in duplicate. Aliquots of a substrate working solution were added to the 96-well plates, prior to initiating reactions, to give the final concentrations indicated in Table 1. Reactions were initiated with the addition of an aliquot of an NADPH-generating system. Reactions were automatically terminated at approximately 5 minutes, by the addition of the appropriate internal standard (Table 5) and stop reagent; acetonitrile. Precipitated protein was removed by centrifugation (920 g for 10 minutes at 10° C.). Standards and quality control samples were similarly prepared with the addition of authentic metabolite standards.
To examine its ability to act as a time-dependent inhibitor, boceprevir (at the same concentrations used to evaluate direct inhibition) was pre-incubated at 37±1° C., in duplicate, with human liver microsomes and an NADPH-generating system for approximately 30 minutes. This pre-incubation allowed for the generation of intermediates that could inhibit human CYP enzymes. The pre-incubations were initiated with the addition of an aliquot of an NADPH-generating system. […] Reactions were automatically terminated, at approximately 5 minutes, by the addition of the appropriate internal standard (Table 5) and stop reagent; acetonitrile. Precipitated protein was removed by centrifugation (920 g for 10 minutes at 10° C.). Incubations containing no boceprevir (0 μM) and incubations that contained boceprevir but were not pre-incubated, served as negative controls.

pIC50: −log10 of the molar value. Read-outs that look alike come from different tables or passages of the source. Some results are limits rather than exact numbers.

In general, pIC50 refers to the negative decadic logarithm of the IC50, by convention in mol/L.

As for `CC(C)(C)NC(=O)NC(C(=O)N1CC2C([C@H]1C(=O)NC(CC1CCC1)C(=O)C(N)=O)C2(C)C)C(C)(C)C` (stereo partly drawn) [Boceprevir, (1R,2S,5S)—N-[(2Ξ)-4-amino-1-cyclobutyl-3,4-dioxobutan-2-yl]-3-{(2S)-2-[(tert-butylcarbamoyl)amino]-3,3-dimethylbutanoyl}-6,6-dimethyl-3-azabicyclo[3.1.0]hexane-2-carboxamide], in the data set with CYP3A4/5, the “Formation of a spectrally visible metabolite inhibitory complex (MIC)” value is reported as “did not appear to form a spectrally visible MIC”. The “Potential for Time-Dep. Inhibition” value at CYP1A2 is given as “little or no”; at CYP1A2 (listed as boceprevir), “no discernable time-dependent inhibition”. In addition, the pIC50 against CYP1A2 (direct inhibition, zero-minute pre-incubation, pooled human liver microsomes) was < 4.00; at CYP1A2 (time-dependent inhibition, 30-minute pre-incubation), < 4.00. For the same compound, the inhibition at 5 min, 100 µM on CYP1A2 (pooled human liver microsomes, direct inhibition, zero-minute pre-incubation, read-out: Max. Inhib. at 100 μM) is 22%; on CYP1A2 (pooled human liver microsomes, time-dependent inhibition, 30-minute pre-incubation, read-out: Maximum Inhibition at 100 μM) it was 9.8%.
